Measurements from patent publication US8729113B2 (Hoffmann-La Roche Inc., priority 2008, dated 2014).

Target: TAAR1 (Mus musculus (Mouse), UniProt Q923Y8)
Test: Radioligand binding assay on TAAR1 (membranes of stably transfected HEK293 cells)
Details: competition with [3H]-rac-2-(1,2,3,4-tetrahydro-1-naphthyl)-2-imidazoline, 4° C., 30 min
Method: For the construction of expression plasmids the coding sequences of human, rat and mouse TAAR 1 were amplified from genomic DNA essentially as described by Lindemann et al.. The Expand High Fidelity PCR System (Roche Diagnostics) was used with 1.5 mM Mg^2+ and purified PCR products were cloned into pCR2.1—TOPO cloning vector (Invitrogen) following the instructions of the manufacturer. PCR products were subcloned into the pIRESneo2 vector (BD Clontech, Palo Alto, Calif.), and expression vectors were sequence verified before introduction in cell lines.
HEK293 cells (ATCC # CRL-1573) were cultured essentially as described Lindemann et al. (2005). For the generation of stably transfected cell lines HEK293 cells were transfected with the pIRESneo2 expression plasmids containing the TAAR coding sequences (described above) with Lipofectamine 2000 (Invitrogen) according to the instructions of the manufacturer, and 24 hrs post transfection the culture medium was supplemented with 1 mg/ml G418 (Sigma, Buchs, Switzerland). After a culture period of about 10 d clones were isolated, expanded and tested for responsiveness to trace amines (all compounds purchased from Sigma) with the cAMP Biotrak Enzyme immunoassay (EIA) System (Amersham) following the non-acetylation EIA procedure provided by the manufacturer. […] Membrane Preparation and Radioligand Binding
Cells at confluence were rinsed with ice-cold phosphate buffered saline without Ca^2+ and Mg^2+ containing 10 mM EDTA and pelleted by centrifugation at 1000 rpm for 5 min at 4° C. The pellet was then washed twice with ice-cold phosphate buffered saline and cell pellet was frozen immediately by immersion in liquid nitrogen and stored until use at −80° C. Cell pellet was then suspended in 20 ml HEPES-NaOH (20 mM), pH 7.4 containing 10 mM EDTA, and homogenized with a Polytron (PT 3000, Kinematica) at 10,000 rpm for 10 s. The homogenate was centrifuged at 48,000×g for 30 min at 4° C. and the pellet resuspended in 20 ml HEPES-NaOH (20 mM), pH 7.4 containing 0.1 mM EDTA (buffer A), and homogenized with a Polytron at 10,000 rpm for 10 s. The homogenate was then centrifuged at 48,000×g for 30 min at 4° C. and the pellet resuspended in 20 ml buffer A, and homogenized with a Polytron at 10,000 rpm for 10 s. Protein concentration was determined by the method of Pierce (Rockford, Ill.). The homogenate was then centrifuged at 48,000×g for 10 min at 4° C., resuspended in HEPES-NaOH (20 mM), pH 7.0 including MgCl2 (10 mM) and […] homogenized with a Polytron at 10,000 rpm for 10 s.
Binding assay was performed at 4° C. in a final volume of 1 ml, and with an incubation time of 30 min. The radioligand [^3H]-rac-2-(1,2,3,4-tetrahydro-1-naphthyl)-2-imidazoline was used at a concentration equal to the calculated Kd value of 60 nM to give a bound at around 0.1% of the total added radioligand concentration, and a specific binding which represented approximately 70-80% of the total binding. Non-specific binding was defined as the amount of [^3H]-rac-2-(1,2,3,4-tetrahydro-1-naphthyl)-2-imidazoline bound in the presence of the appropriate unlabelled ligand (10 μM). Competing ligands were tested in a wide range of concentrations […]. […] Each experiment was performed in duplicate. All incubations were terminated by rapid filtration through UniFilter-96 plates (Packard Instrument Company) and glass filter GF/C, pre-soaked for at least 2 h in polyethylenimine 0.3%, and using a Filtermate 96 Cell Harvester (Packard Instrument Company). The tubes and filters were then washed 3 times with 1 ml aliquots of cold buffer B. Filters were not dried and soaked in Ultima gold (45 μl/well, Packard Instrument Company) and bound radioactivity was counted by a TopCount Microplate Scintillation Counter (Packard Instrument Company).

Sequence of TAAR1 (Q923Y8 whole entry): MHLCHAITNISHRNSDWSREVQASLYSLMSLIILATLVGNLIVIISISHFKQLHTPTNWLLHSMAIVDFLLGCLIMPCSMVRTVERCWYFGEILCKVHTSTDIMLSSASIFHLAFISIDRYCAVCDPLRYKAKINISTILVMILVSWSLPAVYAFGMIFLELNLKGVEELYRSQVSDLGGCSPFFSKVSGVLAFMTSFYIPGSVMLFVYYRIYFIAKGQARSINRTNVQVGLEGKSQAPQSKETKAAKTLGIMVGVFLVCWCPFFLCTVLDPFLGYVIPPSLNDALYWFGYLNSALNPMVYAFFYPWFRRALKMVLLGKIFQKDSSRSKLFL

Structure (SMILES)	Ki
CC[C@@H](C[C@H]1COC(N)=N1)Oc1ccc(F)cc1F [Example 114, (S)-4-[(S)-2-(2,4-Difluoro-phenoxy)-butyl]-4,5-dihydro-oxazol-2-ylamine]	0.0019 µM
CCC(CC[C@H]1COC(N)=N1)c1ccc(Cl)cc1 (stereo partly drawn) [Example 27, (4S)-4-[3-(4-Chloro-phenyl)-pentyl]-4,5-dihydro-oxazol-2-ylamine]	0.0017 µM
NC1=N[C@@H](CCOc2ccccc2Cl)CO1 [Example 6, (S)-4-[2-(2-Chloro-phenoxy)-ethyl]-4,5-dihydro-oxazol-2-ylamine]	0.0041 µM
CC[C@@H](C[C@H]1COC(N)=N1)Oc1ccc2ncccc2c1 [Example 159, (S)-4-[(S)-2-(Quinolin-6-yloxy)-butyl]-4,5-dihydro-oxazol-2-ylamine]	0.0063 µM
NC1=N[C@@H](CCC2(c3ccc(F)cc3F)CC2)CO1 [Example 89, (S)-4-{2-[1-(2,4-Difluoro-phenyl)-cyclopropyl]-ethyl}-4,5-dihydro-oxazol-2-ylamine]	0.0059 µM
CC[C@@H](C[C@H]1COC(N)=N1)Oc1ccc(C(F)(F)F)cc1 [Example 121, (S)-4-[(S)-2-(4-Trifluoromethyl-phenoxy)-butyl]-4,5-dihydro-oxazol-2-ylamine]	0.0038 µM
C[C@@H](C[C@H]1COC(N)=N1)Oc1ccccc1 [Example 81]	0.0064 µM
C[C@@H](C[C@H]1COC(N)=N1)Oc1ccc(Cl)cc1F [Example 73, (S)-4-[(S)-2-(4-Chloro-2-fluoro-phenoxy)-propyl]-4,5-dihydro-oxazol-2-ylamine]	0.0021 µM
CC[C@@H](C[C@H]1COC(N)=N1)Oc1ccc(F)cc1 [Example 117, (S)-4-[(S)-2-(4-Fluoro-phenoxy)-butyl]-4,5-dihydro-oxazol-2-ylamine]	0.0032 µM
C[Si](C)(CC[C@H]1COC(N)=N1)c1cccc(Cl)c1 [Example 61, (S)-4-{2-[(3-Chloro-phenyl)-dimethyl-silanyl]-ethyl}-4,5-dihydro-oxazol-2-ylamine]	0.0055 µM
COc1cccc(OCC[C@H]2COC(N)=N2)c1 [Example 20, (S)-4-[2-(3-Methoxy-phenoxy)-ethyl]-4,5-dihydro-oxazol-2-ylamine]	0.0025 µM
C[C@H](C[C@H]1COC(N)=N1)Oc1ccc(F)c(Cl)c1 [Example 85, (S)-4-[(R)-2-(3-Chloro-4-fluoro-phenoxy)-propyl]-4,5-dihydro-oxazol-2-ylamine]	0.0059 µM
C[C@@H](C[C@H]1COC(N)=N1)Oc1ccc(Cl)c(Cl)c1 [Example 75, (S)-4-[(S)-2-(3,4-Dichloro-phenoxy)-propyl]-4,5-dihydro-oxazol-2-ylamine]	0.001 µM
NC1=N[C@@H](CCC2(c3ccc(Cl)cc3)CCC2)CO1 [Example 110, (S)-4-{2-[1-(4-Chloro-phenyl)-cyclobutyl]-ethyl}-4,5-dihydro-oxazol-2-ylamine]	0.0059 µM

Further lines, results first:

Ki	Structure (SMILES)
0.0002 µM	NC1=N[C@@H](CCOc2ccc(F)c(Cl)c2)CO1 [Example 8, (S)-4-[2-(3-Chloro-4-fluoro-phenoxy)-ethyl]-4,5-dihydro-oxazol-2-ylamine]
0.001 µM	N#Cc1cccc(OCC[C@H]2COC(N)=N2)c1 [Example 63, 3-[2-((S)-2-Amino-4,5-dihydro-oxazol-4-yl)-ethoxy]-benzonitrile]
0.0012 µM	NC1=N[C@@H](CCOc2ccc(F)c(F)c2)CO1 [Example 9, (S)-4-[2-(3,4-Difluoro-phenoxy)-ethyl]-4,5-dihydro-oxazol-2-ylamine]
0.0021 µM	NC1=N[C@@H](CCOc2ccc(F)cc2Cl)CO1 [Example 10, (S)-4-[2-(2-Chloro-4-fluoro-phenoxy)-ethyl]-4,5-dihydro-oxazol-2-ylamine]
0.0004 µM	NC1=N[C@@H](CCC2(c3ccc(Cl)cc3)CC2)CO1 [Example 30, (S)-4-{2-[1-(4-Chloro-phenyl)-cyclopropyl]-ethyl}-4,5-dihydro-oxazol-2-ylamine]
0.0012 µM	CC[C@@H](C[C@H]1COC(N)=N1)Oc1cccc(Cl)c1 [Example 112]
0.0015 µM	NC1=N[C@@H](CCCCc2ccccc2)CO1 [Example 172, (S)-4-(4-Phenyl-butyl)-4,5-dihydro-oxazol-2-ylamine]
